Source: patent US12274732B2, “Anti-pathogen composition and methods of use thereof” (Tenfold Technologies, LLC, priority 2017, dated 2025)
In brackets after ≈: the same amount, converted by molar mass. Read-outs that look alike come from different tables or passages of the source.

Tests used:
Type in all cases: cell-based
Candida albicans = assay: In vitro antimicrobial activity against Candida albicans; conditions: for IC50: Candida albicans, read-out: C. albicans IC50; for C. albicans IC50: Table 5, extracts tested at 8-200 μg/mL
Experimental: (§1) Fifty organic extracts were prepared from 25 whole broth of four microbial strains (MS1479, MS2379, MS2820, and MS2414), which were fermented in different media for the antimicrobial testing. Note each whole broth culture generated one n-butanol extract from cultural supernatant and one methanol extract from cell pellets.
(§2) The antimicrobial activities of the 50 organic extracts were studied against three fungal pathogens—Candida albicans, Aspergillus fumigatus, and Cryptococcus neoformans—and five bacterial strains-Methicillin-resistant Staphylococcus aureus (MIRSA), Escherichia coli, Pseudomonas aeruginosa, Klebsiella pneumoniae, and Vancomycin-resistant Enterococcus faecium (VRE) (FIG. 2). The test concentrations for all extracts were in the range of 8-200 μg/mL (Table 3).
(§3) The antimicrobial activities of identified fusaricidins were in an in vitro study against several clinically relevant microbes. […] For the in-vitro assays against bacteria, fusaricidins were tested against methicillin-resistant Staphylococcus aureus, vancomycin-resistant Enterococcus faecium, Escherichia coli, and Pseudomonas aeruginosa using four antibacterial drugs methicillin, vancomycin, cefotaxime, and meropenem as controls. […] Fusaricidins were also tested against fungal pathogens Cryptococcus neoformans, Candida albicans, and Aspergillus fumigatus and compared with two antifungal drugs, fluconazole and amphotericin B (Table 13). Moreover, the anti-parasitic activity was also tested against L. donovani and T. brucei (Table 14).

Aspergillus fumigatus = assay: In vitro antimicrobial activity against Aspergillus fumigatus; conditions: for IC50: Aspergillus fumigatus, read-out: A. fumigatus IC50; for A. fumigatus IC50: Table 5, extracts tested at 8-200 μg/mL
Experimental: as §1, §2, §3

Cryptococcus neoformans = assay: In vitro antimicrobial activity against Cryptococcus neoformans; conditions: for IC50: Cryptococcus neoformans, read-out: C. neoformans IC50; for C. neoformans IC50: Table 5, extracts tested at 8-200 μg/mL
Experimental: as §1, §2
The potent activities against the fungal pathogen C. neoformans and the gram-positive bacteria S. aureus, MRSA, and M. intracellulare were also shown in the crude extracts (FIG. 7).
as §3

[1] = system: Methicillin-resistant Staphylococcus aureus (MRSA); assay: In vitro antimicrobial activity against MRSA; conditions: for MIC: read-out: MRSA MIC (minimum inhibitory concentration)
Experimental: as §1, §2, §3

Escherichia coli = assay: In vitro antimicrobial activity against Escherichia coli
Experimental: as §1, §2, §3

Pseudomonas aeruginosa = assay: In vitro antimicrobial activity against Pseudomonas aeruginosa
Experimental: as §1, §2, §3

Klebsiella pneumoniae = assay: In vitro antimicrobial activity against Klebsiella pneumoniae; conditions: Klebsiella pneumoniae, read-out: K pneumoniae IC50
Experimental: as §1, §2

[2] = system: Vancomycin-resistant Enterococcus faecium (VRE); assay: In vitro antimicrobial activity against VRE; conditions: for MIC: read-out: VRE MIC (minimum inhibitory concentration); for VRE IC50: Table 5, extracts tested at 8-200 μg/mL
Experimental: as §1, §2, §3

T. brucei = assay: In-vitro antiparasitic activity against T. brucei
Experimental: as §3

[3] = test conc. 200-8 μg/mL (extracts), 100-4 or 10-0.4 μg/mL (drugs)
[4] = Staphylococcus aureus, MRSA, test conc. 200-8 μg/mL (extracts), 100-4 or 10-0.4 μg/mL (drugs), read-out: MRS IC50
[5] = Escherichia coli, test conc. 200-8 μg/mL (extracts), 100-4 or 10-0.4 μg/mL (drugs), read-out: E. coli IC50
[6] = Pseudomonas aeruginosa, test conc. 200-8 μg/mL (extracts), 100-4 or 10-0.4 μg/mL (drugs), read-out: P. aeruginosa IC50
[7] = test conc. 200-8 μg/mL (extracts), 100-4 or 10-0.4 μg/mL (drugs), read-out: VRE IC50

For CN[C@H](CC(C)C)C(=O)N[C@H]1C(=O)N[C@@H](CC(N)=O)C(=O)N[C@H]2C(=O)N[C@H]3C(=O)N[C@H](C(=O)N[C@H](C(=O)O)c4cc(O)cc(O)c4-c4cc3ccc4O)[C@H](O)c3ccc(c(Cl)c3)Oc3cc2cc(c3O[C@@H]2O[C@H](CO)[C@@H](O)[C@H](O)[C@H]2O[C@H]2C[C@](C)(N)[C@H](O)[C@H](C)O2)Oc2ccc(cc2Cl)[C@H]1O [Vancomycin], the IC50 (Candida albicans) was greater than 100 µg/mL, the “C. albicans IC50” value (Candida albicans) was greater than 100 µg/mL and the IC50 (Aspergillus fumigatus) was greater than 100 µg/mL. For the same compound, the “A. fumigatus IC50” value (Aspergillus fumigatus) was greater than 100 µg/mL, the IC50 (Cryptococcus neoformans) was greater than 100 µg/mL and the “C. neoformans IC50” value (Cryptococcus neoformans) was greater than 100 µg/mL. For the same compound, the IC50 ([1]; Staphylococcus aureus, ATCC 1708 / MRSA, read-out: MRSA IC50 (50% growth inhibitory concentration)) was 1.3 µg/mL (≈ 0.897 µM), the MIC ([1]; Staphylococcus aureus, ATCC 1708 / MRSA) was 1.6 µg/mL (≈ 1.1 µM) and the IC50 ([1]; Staphylococcus aureus, MRSA, read-out: MRS IC50) was 0.17 µg/mL (≈ 0.117 µM). For the same compound, the IC50 (Escherichia coli; Escherichia coli, ATCC2452, read-out: E. coli IC50 (50% growth inhibitory concentration)) was 62.3 µg/mL (≈ 43 µM), the MIC (Escherichia coli; Escherichia coli, ATCC2452, read-out: E. coli MIC (minimum inhibitory concentration)) was greater than 100 µg/mL and the IC50 (Escherichia coli; Escherichia coli, read-out: E. coli IC50) was 67.4 µg/mL (≈ 46.5 µM). It also gave an IC50 (Pseudomonas aeruginosa; Pseudomonas aeruginosa, ATCC2108, read-out: P. aeruginosa IC50 (50% growth inhibitory concentration)) greater than 100 µg/mL, an MIC (Pseudomonas aeruginosa; Pseudomonas aeruginosa, ATCC2108, read-out: P. aeruginosa MIC (minimum inhibitory concentration)) greater than 100 µg/mL and an IC50 (Pseudomonas aeruginosa; Pseudomonas aeruginosa, read-out: P. aeruginosa IC50) greater than 100 µg/mL. It also gave an IC50 (Klebsiella pneumoniae) greater than 100 µg/mL, an IC50 ([2]; Enterococcus faecium, ATCC 700221 / VRE, read-out: VRE IC50 (50% growth inhibitory concentration)) greater than 100 µg/mL and an MIC ([2]; Enterococcus faecium, ATCC 700221 / VRE) greater than 100 µg/mL. The “VRE IC50” value [2] was greater than 100 µg/mL and the IC50 ([2]; read-out: VRE IC50) was greater than 100 µg/mL.

For NCCC[C@](N)(C(=O)O)C(F)F [α-Difluoromethylomithine], the “T. brucei IC50” value (T. brucei) was 5.7 µg/mL and the “T. brucei IC90” value (T. brucei; 90% inhibitory concentration) was 6.6 µg/mL.

CO/N=C(\C(=O)N[C@@H]1C(=O)N2C(C(=O)O)=C(COC(C)=O)CS[C@H]12)c1csc(N)n1 [Cefotaxime] was tested, and the IC50 (Candida albicans; [3]) was greater than 100 µg/mL, the “C. albicans IC50” value (Candida albicans) was greater than 100 µg/mL and the IC50 (Aspergillus fumigatus; [3]) was greater than 100 µg/mL. The “A. fumigatus IC50” value (Aspergillus fumigatus) was greater than 100 µg/mL, the IC50 (Cryptococcus neoformans; [3]) was greater than 100 µg/mL and the “C. neoformans IC50” value (Cryptococcus neoformans) was greater than 100 µg/mL. For the same compound, the IC50 ([1]; ATCC 1708 / MRSA, Table 13, Methicillin-resistant Staphylococcus aureus ATCC 1708, read-out: MRSA IC50 (50% growth inhibitory concentration)) was 15.6 µg/mL (≈ 34.3 µM), the MIC ([1]; ATCC 1708 / MRSA, Table 13, Methicillin-resistant Staphylococcus aureus ATCC 1708) was 25 µg/mL (≈ 54.9 µM) and the IC50 [1, 4] was 14.8 µg/mL (≈ 32.5 µM). The IC50 (Escherichia coli; ATCC2452, Table 13, Escherichia coli ATCC 2452, read-out: E. coli IC50 (50% growth inhibitory concentration)) was greater than 100 µg/mL, the MIC (Escherichia coli; ATCC2452, Table 13, Escherichia coli ATCC 2452, read-out: E. coli MIC (minimum inhibitory concentration)) was greater than 100 µg/mL and the IC50 (Escherichia coli; [5]) was 80.2 µg/mL (≈ 176 µM). For the same compound, the IC50 (Pseudomonas aeruginosa; ATCC2108, Table 13, Pseudomonas aeruginosa ATCC 2108, read-out: P. aeruginosa IC50 (50% growth inhibitory concentration)) was 5.3 µg/mL (≈ 11.6 µM), the MIC (Pseudomonas aeruginosa; ATCC2108, Table 13, Pseudomonas aeruginosa ATCC 2108, read-out: P. aeruginosa MIC (minimum inhibitory concentration)) was 25 µg/mL (≈ 54.9 µM) and the IC50 (Pseudomonas aeruginosa; [6]) was 11.8 µg/mL (≈ 26 µM). The IC50 (Klebsiella pneumoniae; [3]) was greater than 100 µg/mL, the IC50 ([2]; ATCC 700221 / VRE, Table 13, Vancomycin-resistant Enterococcus faecium ATCC 700221, read-out: VRE IC50 (50% growth inhibitory concentration)) was greater than 100 µg/mL and the MIC ([2]; ATCC 700221 / VRE, Table 13, Vancomycin-resistant Enterococcus faecium ATCC 700221) was greater than 100 µg/mL. The “VRE IC50” value [2] was greater than 100 µg/mL and the IC50 [2, 7] was greater than 100 µg/mL.

With O=C(O)c1cn(C2CC2)c2cc(N3CCNCC3)c(F)cc2c1=O [Ciprofloxacin] the IC50 (Cryptococcus neoformans; [3]) was greater than 10 µg/mL, the “C. neoformans IC50” value (Cryptococcus neoformans) was greater than 10 µg/mL and the IC50 [1, 4] was greater than 10 µg/mL. The “MRS IC50” value ([1]; Table 5, extracts tested at 8-200 μg/mL) was greater than 10 µg/mL, the IC50 (Escherichia coli; [5]) was less than 0.01 µg/mL and the IC50 (Pseudomonas aeruginosa; [6]) was 0.81 µg/mL (≈ 2.44 µM). The IC50 (Klebsiella pneumoniae; [3]) was greater than 10 µg/mL, the “VRE IC50” value [2] was greater than 10 µg/mL and the IC50 [2, 7] was greater than 10 µg/mL.
